From patent publication US8920775B2, “Loading technique for preparing radionuclide containing nanoparticles” (Technical University of Denmark, priority 2009, dated 2014)

What was measured:
[1] = ITC: ligand exchange of Cu(II) between 2HQ and chelates (Examples III, Table 2)
Description: Isothermal titration calorimetry (ITC) measurements were used to obtain the equilibrium constant (K, also referred to as the exchange constant) of the ligand exchange between the ionophore and the agent-entrapping compound, here a chelator. […] The ligand exchange was monitored by the heat of reaction from each injection in the ITC experiment as determined by peak integration. The ligand exchange constant (K) was determined by fitting the heat of reaction. The binding isotherm is defined by the equilibrium: Cu(2HQ)2+chelate ? Cu(chelate)+2(2HQ) (1)
The ITC measurements were carried out at 25° C. and 50° C. using isothermal titration calorimetry (iTC200, Micro-Cal, GE). The instrument was electrically calibrated by means of a standard electric pulse as recommended by the manufacturer. A 40 μL syringe was used for the titration, mixing was effected by stirring the syringe at 1000 rpm during equilibration and experiments. Typically, 20 injections of 2 μL each were performed with a 150 s interval between injections in a single titration. The reference cell of the calorimeter filled with water acts as a thermal reference to the sample cell. […] All solutions were degassed before titrations to reduce noise.
The ligand exchange constant (K) and the ligand exchange enthalpy (ΔH) are determined by as fitting parameters using a binding isotherm based on reaction scheme (1).

[2] = In vivo PET/CT biodistribution and blood concentration-time profile; parameters: species or system NMRI nude mice; conditions: i.v., mice, PET ROI on left ventricle
Description: Human colon adenocarcinoma (HT29) tumor cells (2×10^6 cells) were inoculated in the left and right flank of female NMRI (Naval Medical Research Institute) nude mice and allowed to grow 4 weeks in the mice to establish the malignant solid tumor. ^64Cu-liposomes for in vivo studies were prepared as described above and consisted of DSPC/CHOL/DSPE-PEG-2000 in the molar ratio 55:40:5 and contained the chelating agent (DOTA) in a concentration of 10 mM, and at a pH of 4.0 in the interior of the liposomes. […]
After i.v. administration of ^64Cu-liposome or ^64Cu-DOTA the animals were subject to micro-PET/CT imaging at different time points: 1, 4, 12 and 24 h. With PET imaging the amount of radioactivity specifically sequestered in a region of interest (ROI) on an image can be calculated allowing direct quantitative determinations based on differences in signal intensity. After PET- and CT images were reconstructed the images were fused with Inveon Software (Siemens), and PET data were analyzed by defining ROIs on selected tissues. PET values are expressed as mean Becquerel ml^−1 (Bq ml^−1), and ROIs were drawn manually over each organ of interest. […]
FIG. 11 is a time-activity curve (TAC) illustrating the blood concentration-time pro-file of ^64Cu-liposome and ^64Cu-DOTA. […] The total injected activity dose was measured by drawing one ROI around the animal 4 min post-injection. […]

[3] = ITC: ligand exchange of 2HQ with DOTA complexed to Cu(II) (Examples II); format: binding
[4] = ITC: extraction of Cu(II) from 2-hydroxyquinoline by DOTA (Examples I); format: binding; conditions: Milli-Q water pH 7.4, 25° C.
Description: Isothermal titration calorimetry (ITC) measurements are designed to obtain primarily the enthalpy of each complex formation and their stoichiometries. The heats of each reaction are determined by integration of the peaks observed. After the contribution from the heat of dilution of each injection is subtracted, the heat is plotted against the molar ratio of the measured components. The binding constant (Ka, interchangeably referred to as the ligand exchange constant, K), enthalpy of binding) (ΔH^0), and stoichiometry (n) of the formation of complex are determined by fitting the binding isotherm against the binding equation using an independent binding model.
The exchange of 2-hydroxyquinoline with DOTA are shown as heat spike plots (A) and integrated heat plots (B). Experimental conditions: 0.5 mM Cu(2-hydroxyquinoine)2 is titrated with 10-μL injections of 5 mM DOTA. All solutions were prepared in Milli-Q water at pH=7.4.

Structure (SMILES) | Ligand exchange constant (K), exchange of Cu(II) from 2HQ to chelate ([1]; pH 5.9 at 25° C.) | ligand exchange enthalpy (ΔH) ([1]; pH 5.9 at 25° C.) | Ligand exchange constant (K), exchange of Cu(II) from 2HQ to chelate ([1]; pH 5.9 at 50° C.) | ligand exchange enthalpy (ΔH) ([1]; pH 5.9 at 50° C.) | Ligand exchange constant (K), exchange of Cu(II) from 2HQ to chelate ([1]; pH 4.0 at 25° C.) | ligand exchange enthalpy (ΔH) ([1]; pH 4.0 at 25° C.) | blood clearance [2] | exchange constant, K (Cu(2HQ)2 + DOTA) ([3]; acetate buffer at pH 4.0, 25° C.) | exchange constant, K (Cu(2HQ)2 + DOTA) ([3]; pH 5.9 in MES buffer, 25° C.) | Ligand exchange constant (K), exchange of Cu(II) from 2HQ to chelate ([1]; pH 4.0 at 50° C.) | ligand exchange enthalpy (ΔH) ([1]; pH 4.0 at 50° C.) | binding affinity to Cu(II) compared with 2-hydroxyquinoline [4]
C1CNCCNCCNCCN1 [Cyclen, 1,4,7,10-tetraazacyclododecane] | ^ | ^ | 1.4 × 10^−3 | -5.5 kcal/mol | – | – | – | – | – | – | – | –
O=C(O)CN1CCCN(CC(=O)O)CCN(CC(=O)O)CCCN(CC(=O)O)CC1 [TETA, 1,4,8,11-tetraazacyclotetradecane-1,4,8,11-tetraacetic acid] | 3.0 × 10^−3 | -4.9 kcal/mol | 2.8 × 10^−2 | -4.7 kcal/mol | 1.2 × 10^−4 | 0.5 kcal/mol | – | – | – | – | – | –
O=C([O-])CN1CCN(CC(=O)[O-])CCN(CC(=O)O)CCN(CC(=O)O)CC1.[64Cu+2] [^64Cu-DOTA] | – | – | – | – | – | – | cleared rapidly after administration through renal filtration | – | – | – | – | –
O=C(O)CN1CCN(CC(=O)O)CCN(CC(=O)O)CCN(CC(=O)O)CC1 [DOTA, 1,4,7,10-tetraazacyclododecane-1,4,7,10-tetraacetic acid] | 6.1 × 10^−4 | -8.0 kcal/mol | 1.0 × 10^−3 | -6.3 kcal/mol | 1.3 × 10^−2 | 3.8 kcal/mol | – | (1.0±0.3)·10^−2 | (5.2±1.6)·10^−4 | 8.7 × 10^−3 | 4.0 kcal/mol | much higher binding affinity to Cu(II) than 2-hydroxyquinoline
O=P(O)(O)CN1CCN(CP(=O)(O)O)CCN(CP(=O)(O)O)CCN(CP(=O)(O)O)CC1 [DOTP, 1,4,7,10-tetraazacyclododecane-1,4,7,10-tetra(methanephosphonic acid)] | – | – | – | – | 2.5 × 10^−3 | 2.4 kcal/mol | – | – | – | 2.9 × 10^−3 | 3.4 kcal/mol | –
